Assay results reported in ChEMBL document CHEMBL1201862, “PubChem BioAssay data set” (2004).
Activity calls are given as the source filed them.

Assays:
[1] = target: T1, Aryl hydrocarbon receptor (Homo sapiens, UniProt P35869); assay: Luminescence-based cell-based high throughput dose response assay for activators of the Aryl Hydrocarbon Receptor (AHR). [Related pubchem assays: 2796 (Primary screen (AHR activators in singlicate)), 2845 (Confirmation screen (AHR activators in triplicate)), 434939 (Counterscreen (PXR activators in triplicate)), 2804 (Summary (AHR activators))]; assay type: ADME
T1 sequence (P35869 whole entry): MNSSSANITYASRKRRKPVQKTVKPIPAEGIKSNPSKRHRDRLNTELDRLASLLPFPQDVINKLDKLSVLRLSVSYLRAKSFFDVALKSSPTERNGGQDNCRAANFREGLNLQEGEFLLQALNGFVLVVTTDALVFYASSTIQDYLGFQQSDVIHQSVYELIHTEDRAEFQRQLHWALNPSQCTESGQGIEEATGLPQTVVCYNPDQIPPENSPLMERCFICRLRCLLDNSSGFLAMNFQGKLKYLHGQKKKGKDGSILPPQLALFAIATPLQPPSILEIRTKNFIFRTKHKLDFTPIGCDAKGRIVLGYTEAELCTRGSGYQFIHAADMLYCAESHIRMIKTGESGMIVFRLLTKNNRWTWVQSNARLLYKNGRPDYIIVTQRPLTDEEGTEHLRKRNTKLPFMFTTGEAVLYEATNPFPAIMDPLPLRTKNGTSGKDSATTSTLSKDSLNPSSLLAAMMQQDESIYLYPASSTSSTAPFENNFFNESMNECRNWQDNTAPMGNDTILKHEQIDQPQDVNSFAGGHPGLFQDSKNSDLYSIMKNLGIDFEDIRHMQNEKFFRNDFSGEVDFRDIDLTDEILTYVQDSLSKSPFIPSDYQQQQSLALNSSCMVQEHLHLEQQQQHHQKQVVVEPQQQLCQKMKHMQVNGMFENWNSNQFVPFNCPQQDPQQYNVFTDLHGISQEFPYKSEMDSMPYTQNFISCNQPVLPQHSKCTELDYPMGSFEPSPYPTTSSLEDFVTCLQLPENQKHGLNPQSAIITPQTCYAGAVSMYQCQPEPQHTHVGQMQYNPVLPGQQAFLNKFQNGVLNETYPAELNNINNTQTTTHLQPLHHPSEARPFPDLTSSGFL

NADPH oxidase 1 = NADPH oxidase 1 (Homo sapiens, UniProt Q9Y5S8); assay: Late-stage luminescence-based cell-based dose response assay to identify inhibitors of NADPH oxidase 1 (NOX1): Synthesized analogs.; assay type: functional
Chain of NADPH oxidase 1 (Q9Y5S8 whole entry): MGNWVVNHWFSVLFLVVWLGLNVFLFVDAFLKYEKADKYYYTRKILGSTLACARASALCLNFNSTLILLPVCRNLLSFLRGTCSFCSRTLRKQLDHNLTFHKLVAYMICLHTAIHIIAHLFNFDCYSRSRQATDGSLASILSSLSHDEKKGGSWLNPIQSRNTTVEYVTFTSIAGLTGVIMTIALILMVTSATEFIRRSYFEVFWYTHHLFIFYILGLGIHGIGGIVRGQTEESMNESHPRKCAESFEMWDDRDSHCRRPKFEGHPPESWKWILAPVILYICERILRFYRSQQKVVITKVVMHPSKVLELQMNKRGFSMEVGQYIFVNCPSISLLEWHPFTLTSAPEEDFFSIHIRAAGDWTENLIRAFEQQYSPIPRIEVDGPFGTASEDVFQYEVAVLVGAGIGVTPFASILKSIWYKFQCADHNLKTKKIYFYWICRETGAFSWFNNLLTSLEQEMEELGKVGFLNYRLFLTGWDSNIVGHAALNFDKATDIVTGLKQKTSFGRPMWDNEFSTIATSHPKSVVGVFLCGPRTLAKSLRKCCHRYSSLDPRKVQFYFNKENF

[2] = target: G-protein coupled receptor 55 (Homo sapiens, UniProt Q9Y2T6); assay: GPR55 agonists via beta-arrestin recruitment, primary screen, imaging, U2OS cells, beta-arrestin-GFP redistribution (AID 1961); assay type: functional
Chain of G-protein coupled receptor 55 (Q9Y2T6 whole entry): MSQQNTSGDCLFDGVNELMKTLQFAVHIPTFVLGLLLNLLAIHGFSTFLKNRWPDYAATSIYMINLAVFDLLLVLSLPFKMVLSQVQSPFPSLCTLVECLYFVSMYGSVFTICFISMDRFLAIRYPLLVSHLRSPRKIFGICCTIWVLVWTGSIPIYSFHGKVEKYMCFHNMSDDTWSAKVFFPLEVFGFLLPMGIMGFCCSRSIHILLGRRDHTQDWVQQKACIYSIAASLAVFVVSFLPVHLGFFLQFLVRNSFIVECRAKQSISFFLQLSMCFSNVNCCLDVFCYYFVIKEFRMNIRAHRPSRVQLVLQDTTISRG

Large T antigen = Large T antigen (Simian virus 40, UniProt P03070); assay type: functional, Betapolyomavirus macacae;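 note: Confirmatory-stage PubChem screen for compounds that inhibit SV40 T antigen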
Chain of Large T antigen (P03070 whole entry): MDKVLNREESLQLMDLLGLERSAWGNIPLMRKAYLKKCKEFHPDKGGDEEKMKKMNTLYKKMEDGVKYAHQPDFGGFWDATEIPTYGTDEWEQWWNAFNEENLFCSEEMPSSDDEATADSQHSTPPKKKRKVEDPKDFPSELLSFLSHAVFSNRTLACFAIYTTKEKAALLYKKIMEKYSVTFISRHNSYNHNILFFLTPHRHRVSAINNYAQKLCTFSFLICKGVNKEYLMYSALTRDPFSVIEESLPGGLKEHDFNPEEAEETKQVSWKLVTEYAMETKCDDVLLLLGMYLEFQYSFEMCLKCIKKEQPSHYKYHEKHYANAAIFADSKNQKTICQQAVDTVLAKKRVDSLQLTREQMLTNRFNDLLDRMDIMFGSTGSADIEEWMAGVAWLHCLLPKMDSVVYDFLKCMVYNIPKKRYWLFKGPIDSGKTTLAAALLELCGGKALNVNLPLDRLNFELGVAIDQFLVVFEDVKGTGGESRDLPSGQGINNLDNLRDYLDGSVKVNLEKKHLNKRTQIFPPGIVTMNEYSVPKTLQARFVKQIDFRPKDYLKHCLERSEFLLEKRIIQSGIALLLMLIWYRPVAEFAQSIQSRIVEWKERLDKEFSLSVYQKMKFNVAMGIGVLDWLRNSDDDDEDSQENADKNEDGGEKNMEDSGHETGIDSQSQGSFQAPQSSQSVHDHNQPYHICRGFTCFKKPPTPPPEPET

[3] = target: Induced myeloid leukemia cell differentiation protein Mcl-1 (Homo sapiens, UniProt Q07820); assay type: functional
Chain of Induced myeloid leukemia cell differentiation protein Mcl-1 (Q07820 whole entry): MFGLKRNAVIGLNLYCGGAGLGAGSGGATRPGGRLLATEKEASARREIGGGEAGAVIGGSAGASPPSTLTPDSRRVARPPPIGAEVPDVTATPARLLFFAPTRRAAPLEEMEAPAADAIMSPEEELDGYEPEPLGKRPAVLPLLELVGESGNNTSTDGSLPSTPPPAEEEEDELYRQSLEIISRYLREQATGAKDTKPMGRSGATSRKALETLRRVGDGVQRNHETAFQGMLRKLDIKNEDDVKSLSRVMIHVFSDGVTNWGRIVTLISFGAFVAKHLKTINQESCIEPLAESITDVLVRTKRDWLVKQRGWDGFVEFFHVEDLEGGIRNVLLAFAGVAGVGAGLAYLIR

[4] = target: Eukaryotic translation initiation factor 4E (Mus musculus, UniProt P63073); assay: eIF4E–eIF4G protein interaction inhibitors, dose response, biochemical, TR-FRET (AID 855); assay type: functional;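 note: potency for disrupting eIF4E binding to eIF4GI seen as loss of FRET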
Chain of Eukaryotic translation initiation factor 4E (P63073 whole entry): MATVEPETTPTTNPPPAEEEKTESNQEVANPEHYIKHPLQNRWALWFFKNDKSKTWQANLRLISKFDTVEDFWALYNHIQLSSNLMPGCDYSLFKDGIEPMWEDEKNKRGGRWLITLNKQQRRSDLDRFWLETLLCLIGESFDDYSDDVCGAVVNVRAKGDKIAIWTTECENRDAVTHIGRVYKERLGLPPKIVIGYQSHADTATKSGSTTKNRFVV

Hexokinase HKDC1 = target: T2, Hexokinase HKDC1 (Homo sapiens, UniProt Q2TB90); assay: HKDC1 hexokinase inhibitors, dose response, biochemical, W721R variant (AID 504729); assay type: functional
T2 sequence (Q2TB90 whole entry): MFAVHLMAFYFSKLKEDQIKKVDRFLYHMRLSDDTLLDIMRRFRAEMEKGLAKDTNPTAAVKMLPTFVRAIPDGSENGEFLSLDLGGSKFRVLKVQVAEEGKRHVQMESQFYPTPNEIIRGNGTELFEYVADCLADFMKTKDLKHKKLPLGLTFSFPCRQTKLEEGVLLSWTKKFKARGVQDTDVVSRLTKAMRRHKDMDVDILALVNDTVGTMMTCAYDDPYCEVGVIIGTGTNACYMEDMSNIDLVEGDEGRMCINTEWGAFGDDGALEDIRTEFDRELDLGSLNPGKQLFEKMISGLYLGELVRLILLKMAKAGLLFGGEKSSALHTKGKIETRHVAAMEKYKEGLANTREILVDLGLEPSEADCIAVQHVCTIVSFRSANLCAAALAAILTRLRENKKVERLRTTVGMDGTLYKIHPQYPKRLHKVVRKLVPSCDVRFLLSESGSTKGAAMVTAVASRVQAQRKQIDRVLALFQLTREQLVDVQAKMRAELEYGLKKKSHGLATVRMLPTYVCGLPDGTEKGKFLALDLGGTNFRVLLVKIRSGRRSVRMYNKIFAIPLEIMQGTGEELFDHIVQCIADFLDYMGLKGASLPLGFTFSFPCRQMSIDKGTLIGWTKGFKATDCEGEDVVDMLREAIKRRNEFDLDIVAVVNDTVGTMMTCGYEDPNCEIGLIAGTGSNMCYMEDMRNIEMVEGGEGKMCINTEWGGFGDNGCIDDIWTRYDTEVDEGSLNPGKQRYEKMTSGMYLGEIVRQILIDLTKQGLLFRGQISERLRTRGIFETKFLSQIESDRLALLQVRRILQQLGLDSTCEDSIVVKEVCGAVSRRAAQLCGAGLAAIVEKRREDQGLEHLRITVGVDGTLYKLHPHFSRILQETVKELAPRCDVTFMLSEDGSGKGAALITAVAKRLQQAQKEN

Protein Tat = Protein Tat (Human immunodeficiency virus type 1 group M subtype B (isolate HXB2)(HIV-1), UniProt P04608); assay type: functional;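 note: tat binding to TAR RNA read out by fluorescence polarization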
Chain of Protein Tat (P04608 whole entry): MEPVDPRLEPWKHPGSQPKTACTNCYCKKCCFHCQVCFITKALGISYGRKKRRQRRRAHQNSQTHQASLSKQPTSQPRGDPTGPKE

[5] = Luminescent dose response cell-based high throughput screening assay for inhibitors of the Janus kinase 2 mutant JAK2V617F. [Related pubchem assays: 1446 (Primary screen.), 1521 (Confirmation assay.), 1486 (Counter screen.)]; assay type: functional
BJ [6] = assay: cytotoxicity toward BJ-TERT fibroblasts, dose response, cell-based, RAS-independent, luminescence (AID 1933); assay type: functional; conditions: Homo sapiens
BJ [7] = assay: cells; assay type: functional, cell-based; conditions: Homo sapiens
BJ [8] = assay: cytotoxicity toward BJ-TERT-LT-ST fibroblasts, dose response, cell-based, RAS-independent, luminescence (AID 1935); assay type: functional; conditions: Homo sapiens;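 note: BJ fibroblasts immortalized with TERT plus LT and ST oncogenes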
[9] = cytotoxicity toward DRD oncogenic fibroblasts, dose response, cell-based, non-viral oncogenic, luminescence (AID 1934); assay type: functional; conditions: Homo sapiens
[10] = NIH-3T3 fibroblast cytotoxicity, dose response, cytotoxicity control, cell-based, fluorescence, Alamar Blue, secondary assay (AID 2327); assay type: functional;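 note: NIH-3T3 mouse fibroblasts cultured with fluconazole at 8 µg/mL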
[11] = C. albicans growth with fluconazole, confirmation, fluorescence, retest (AID 2467); assay type: functional, cell-based
[12] = target: T3, Mannose-6-phosphate isomerase (Homo sapiens, UniProt P34949); assay: inhibitors of human PMI, primary screen, biochemical, fluorescence intensity, coupled assay (AID 1209)
T3 sequence (P34949 whole entry): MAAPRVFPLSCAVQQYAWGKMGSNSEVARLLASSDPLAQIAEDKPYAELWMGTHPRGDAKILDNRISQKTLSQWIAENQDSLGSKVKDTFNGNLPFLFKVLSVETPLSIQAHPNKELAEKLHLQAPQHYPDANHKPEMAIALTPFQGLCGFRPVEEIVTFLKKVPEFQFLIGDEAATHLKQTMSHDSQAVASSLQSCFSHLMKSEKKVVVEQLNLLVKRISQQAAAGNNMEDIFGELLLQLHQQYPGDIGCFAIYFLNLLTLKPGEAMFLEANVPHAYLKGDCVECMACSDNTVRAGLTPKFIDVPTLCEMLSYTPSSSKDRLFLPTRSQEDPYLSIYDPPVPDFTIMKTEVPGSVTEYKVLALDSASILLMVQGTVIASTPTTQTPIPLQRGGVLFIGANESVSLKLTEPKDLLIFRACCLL

[13] = target: T3, Mannose-6-phosphate isomerase; assay: human PMI inhibitors, high substrate, primary screen, biochemical, fluorescence intensity, high mannose 6-phosphate (AID 1220)
[14] = target: Heat shock protein HSP 90-alpha (Homo sapiens, UniProt P07900); assay type: functional, organism-based
[15] = target: T4, Rac GTPase-activating protein 1 (Homo sapiens, UniProt Q9H0H5); assay: MgcRacGAP GTPase-activating activity inhibitors, confirmation, biochemical, ADP Hunter fluorescence, primary and confirmatory (AID 624330); assay type: functional
T4 sequence (Q9H0H5 whole entry): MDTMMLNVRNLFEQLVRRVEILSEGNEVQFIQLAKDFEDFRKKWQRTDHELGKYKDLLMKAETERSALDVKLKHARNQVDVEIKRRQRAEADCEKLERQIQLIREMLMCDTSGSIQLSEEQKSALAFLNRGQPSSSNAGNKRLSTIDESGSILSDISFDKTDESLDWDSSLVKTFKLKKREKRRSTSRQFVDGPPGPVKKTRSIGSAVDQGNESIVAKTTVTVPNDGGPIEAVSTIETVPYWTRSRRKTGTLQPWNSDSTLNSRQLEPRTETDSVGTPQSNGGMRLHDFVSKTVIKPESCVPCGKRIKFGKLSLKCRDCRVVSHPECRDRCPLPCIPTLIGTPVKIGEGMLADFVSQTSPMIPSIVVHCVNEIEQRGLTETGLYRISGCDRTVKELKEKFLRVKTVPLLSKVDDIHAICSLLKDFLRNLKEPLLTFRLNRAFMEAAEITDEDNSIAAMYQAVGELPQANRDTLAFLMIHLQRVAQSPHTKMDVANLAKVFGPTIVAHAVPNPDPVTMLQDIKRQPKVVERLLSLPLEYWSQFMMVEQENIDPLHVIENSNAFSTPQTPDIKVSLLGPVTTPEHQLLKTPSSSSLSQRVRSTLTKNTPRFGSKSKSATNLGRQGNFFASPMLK

[16] = target: T5, RNA-binding protein pos-1 (Caenorhabditis elegans, UniProt G5EF15); assay: inhibitors of POS-1/mex-3 RNA binding, dose response, biochemical, fluorescence polarization (AID 1964);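 note: purified POS-1 fused to maltose binding protein made in E. coli; potency of compounds blocking POS-1 binding to fluorescent RNA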
T5 sequence (G5EF15 whole entry): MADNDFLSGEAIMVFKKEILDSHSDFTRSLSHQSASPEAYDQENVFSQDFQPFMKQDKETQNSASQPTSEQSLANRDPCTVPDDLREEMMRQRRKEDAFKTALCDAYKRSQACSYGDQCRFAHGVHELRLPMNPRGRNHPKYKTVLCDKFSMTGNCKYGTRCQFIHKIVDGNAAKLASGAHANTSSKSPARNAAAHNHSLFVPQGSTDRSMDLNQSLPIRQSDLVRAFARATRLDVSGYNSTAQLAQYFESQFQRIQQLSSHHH

[17] = target: T6, Zinc finger protein mex-5 (Caenorhabditis elegans, UniProt Q9XUB2); assay: MEX-5/TCR-2 RNA interaction inhibitors, dose response, biochemical, C. elegans, fluorescence polarization (AID 1960)
T6 sequence (Q9XUB2 whole entry): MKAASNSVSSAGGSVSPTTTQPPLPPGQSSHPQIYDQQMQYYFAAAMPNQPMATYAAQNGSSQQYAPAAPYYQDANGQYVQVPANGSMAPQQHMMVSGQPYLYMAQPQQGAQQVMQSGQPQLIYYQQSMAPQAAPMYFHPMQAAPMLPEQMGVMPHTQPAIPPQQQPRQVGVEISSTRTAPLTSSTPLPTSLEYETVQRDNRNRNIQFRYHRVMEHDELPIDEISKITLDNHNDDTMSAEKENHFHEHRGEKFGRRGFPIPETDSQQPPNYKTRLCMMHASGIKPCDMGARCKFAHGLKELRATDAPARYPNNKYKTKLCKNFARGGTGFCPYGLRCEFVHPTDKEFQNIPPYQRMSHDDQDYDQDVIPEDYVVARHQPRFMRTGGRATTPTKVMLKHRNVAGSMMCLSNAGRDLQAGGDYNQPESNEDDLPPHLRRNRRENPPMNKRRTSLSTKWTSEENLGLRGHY

14-3-3 protein gamma = 14-3-3 protein gamma (Homo sapiens, UniProt P61981); assay: modulators of 14-3-3 gamma client binding – dose response (AID 711); assay type: functional
Chain of 14-3-3 protein gamma (P61981 whole entry): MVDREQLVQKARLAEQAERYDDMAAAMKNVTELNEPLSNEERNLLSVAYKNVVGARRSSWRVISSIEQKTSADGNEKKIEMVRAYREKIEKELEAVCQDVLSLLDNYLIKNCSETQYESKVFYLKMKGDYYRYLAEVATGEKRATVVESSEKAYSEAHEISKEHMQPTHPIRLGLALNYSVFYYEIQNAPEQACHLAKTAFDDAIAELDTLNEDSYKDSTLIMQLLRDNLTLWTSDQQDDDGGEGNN

[18] = target: Peroxisome proliferator-activated receptor gamma/Nuclear receptor coactivator 2 (Homo sapiens, UniProt P37231); assay type: functional;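 note: agonist potency for raising coactivator recruitment to the receptor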
[19] = target: Peroxisome proliferator-activated receptor gamma/Nuclear receptor coactivator 1 (Homo sapiens, UniProt P37231); assay type: functional;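 note: agonist potency as compounds enhance coactivator SRC-1 recruitment to PPARgamma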
[20] = target: Peroxisome proliferator-activated receptor gamma/Nuclear receptor coactivator 3 (Homo sapiens, UniProt P37231); assay type: functional;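 note: agonist potency for raising coactivator recruitment to the receptor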
[21] = target: Peroxisome proliferator-activated receptor gamma/Nuclear receptor corepressor 2 (Homo sapiens, UniProt P37231+Q9Y618); assay: Counterscreen for NR2E3 inverse agonists: TR-FRET-based biochemical high throughput dose response assay to identify inverse agonists of the interaction between peroxisome proliferator-activated receptor gamma (PPARg) and nuclear receptor co-repressor 2 (NCOR2).; assay type: functional
[22] = target: Photoreceptor-specific nuclear receptor (Homo sapiens, UniProt Q9Y5X4); assay: NR2E3 inverse agonists, dose response, biochemical, TR-FRET (AID 463256); assay type: functional
Chain of Photoreceptor-specific nuclear receptor (Q9Y5X4 whole entry): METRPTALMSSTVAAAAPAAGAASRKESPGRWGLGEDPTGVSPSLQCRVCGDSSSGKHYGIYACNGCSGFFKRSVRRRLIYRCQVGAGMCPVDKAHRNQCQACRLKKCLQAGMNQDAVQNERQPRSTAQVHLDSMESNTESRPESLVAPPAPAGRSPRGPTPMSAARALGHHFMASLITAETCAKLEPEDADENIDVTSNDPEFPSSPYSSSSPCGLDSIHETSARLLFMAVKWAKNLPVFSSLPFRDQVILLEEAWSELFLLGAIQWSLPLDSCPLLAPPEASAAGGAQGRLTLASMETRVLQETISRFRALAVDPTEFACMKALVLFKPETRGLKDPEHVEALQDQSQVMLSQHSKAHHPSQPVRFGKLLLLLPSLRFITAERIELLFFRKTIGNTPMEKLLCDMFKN

[23] = target: Mitogen-activated protein kinase 10 (Homo sapiens, UniProt P53779); assay: Dose response biochemical screening assay for inhibitors of c-Jun N-Terminal Kinase 3 (JNK3). [Related pubchem assays: 746 ]
Chain of Mitogen-activated protein kinase 10 (P53779 whole entry): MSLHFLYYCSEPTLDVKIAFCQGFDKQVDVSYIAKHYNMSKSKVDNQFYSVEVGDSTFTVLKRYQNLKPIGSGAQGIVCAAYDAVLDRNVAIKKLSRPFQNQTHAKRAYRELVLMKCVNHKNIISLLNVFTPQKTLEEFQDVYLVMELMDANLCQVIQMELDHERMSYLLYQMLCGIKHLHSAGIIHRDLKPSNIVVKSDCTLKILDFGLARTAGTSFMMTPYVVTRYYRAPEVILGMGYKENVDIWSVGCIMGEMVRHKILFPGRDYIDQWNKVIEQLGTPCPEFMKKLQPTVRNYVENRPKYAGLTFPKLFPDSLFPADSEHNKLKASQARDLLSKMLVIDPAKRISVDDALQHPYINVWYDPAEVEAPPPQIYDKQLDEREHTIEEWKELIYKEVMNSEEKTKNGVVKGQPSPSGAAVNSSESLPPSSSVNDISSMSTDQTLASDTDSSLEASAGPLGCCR

[24] = target: Dual specificity tyrosine-phosphorylation-regulated kinase 1A (Rattus norvegicus, UniProt Q63470); assay type: biochemical, Homo sapiens

Cc1ccc(-n2c(=O)[nH]cc(C(=O)Nc3ccc4c(c3)OCO4)c2=O)cc1C
EC50 [1]: 7.75 µM (active)

O=C(CSc1nc2ccccc2o1)N1c2ccccc2Sc2ccc(C(F)(F)F)cc21
IC50 (NADPH oxidase 1): > 50 µM (not active)
EC50 [2]: > 32 µM (inactive)

O=C1NC(=S)N(c2ccc(F)cc2)C(=O)/C1=C\c1ccoc1
IC50 (Large T antigen): 12.8 µM (active)
IC50 [3]: 1.53 µM (active)
IC50 [4]: 50 µM (inactive)
IC50 (Hexokinase HKDC1): 10.7 µM (active)
IC50 (Protein Tat): > 25 µM (active)

COc1ccc(Nc2nc(N)nc(CCl)n2)cc1
IC50 [5]: 1.45 µM (active)
EC50 (BJ [6]): 0.498 µM (inconclusive)
EC50 (BJ [7]): 3.57 µM (active)
EC50 (BJ [8]): > 150 µM (inconclusive)
EC50 [9]: 2.25 µM (active)

Cc1ccc(/C=[N+](\[O-])c2ccc(N(C)C)cc2)c2nsnc12
EC50 [10]: 8.84 µM (inconclusive)
EC50 [11]: 2.41 µM (active)
IC50 [12]: > 50 µM (not active)
IC50 [13]: > 50 µM (not active)
AC50 [14]: 7.84 µM (active)
IC50 [15]: 9.25 µM (active)

CC1=CC(C#N)(C#N)C(C#N)(C#N)C(c2ccccc2)N1 (centres undefined)
EC50 [16]: 3.14 µM (active)
EC50 [17]: 2.46 µM (active)
IC50 (14-3-3 protein gamma): 3.15 µM (active)

Cn1c(SCC(=O)Nc2cccc(Br)c2)nnc1-c1cc2ccccc2o1
EC50 [18]: 14.5 µM (not active)
EC50 [19]: 13.3 µM (not active)
EC50 [20]: 18.3 µM (not active)
IC50 [21]: 0.152 µM (active)
IC50 [22]: 0.167 µM (active)

C/C(=N/Cc1cccnc1)C1=C(O)c2ccccc2C1=O
IC50 [23]: 20 µM (not active)
AC50 [24]: 12.9 µM (active)
